Data published in the supplement of paper PMC10307832.

Tests used:
Assay in all cases: relative viability (nuclei count vs DMSO), 5 days (fraction); higher = more cells survive
NCI-H2347 = test system: NCI-H2347
How it was run: (§1)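 Relative viability equals treated-well nuclei counts divided by vehicle-well nuclei counts. Counts came from 4× images of lung cancer cell lines grown in 1536-well plates for 5 days after pin-tool dosing on the day after seeding. Dosing used one drug alone or a fixed anchor-drug dose plus five library-drug doses (not always all listed) in √10 steps, and values are medians of duplicate plates.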

H3255 = test system: H3255
How it was run: as §1

201T = test system: 201T
How it was run: as §1

NCI-H1793 = test system: NCI-H1793
How it was run: as §1

LU99A = test system: LU99A
How it was run: as §1

NCI-H1650 = test system: NCI-H1650
How it was run: as §1

A-427 = test system: A-427
How it was run: as §1

PC-14 = test system: PC-14
How it was run: as §1

LCLC-103H = test system: LCLC-103H
How it was run: as §1

COR-L23 = test system: COR-L23
How it was run: as §1

NCI-H727 = test system: NCI-H727
How it was run: as §1

SW 900 = test system: SW 900
How it was run: as §1

LC-2-ad = test system: LC-2-ad
How it was run: as §1

PC-3 [JPC-3] = test system: PC-3 [JPC-3]
How it was run: as §1

LK-2 = test system: LK-2
How it was run: as §1

NCI-H460 = test system: NCI-H460
How it was run: as §1

NCI-H23 = test system: NCI-H23
How it was run: as §1

LCLC-97TM1 = test system: LCLC-97TM1
How it was run: as §1

NCI-H2228 = test system: NCI-H2228
How it was run: as §1

HCC-44 = test system: HCC-44
How it was run: as §1

SW 1573 = test system: SW 1573
How it was run: as §1

`CCN(CC)CCCCNc1ncc2cc(-c3cc(OC)cc(OC)c3)c(NC(=O)NC(C)(C)C)nc2n1` + CC(=O)c1c(C)c2cnc(Nc3ccc(N4CCNCC4)cn3)nc2n(C2CCCC2)c1=O [Palbociclib] (partner 0.5 µM) gave a relative viability (NCI-H2347; first compound 0.01 µM) of 0.551, a relative viability (NCI-H2347; first compound 0.03162 µM) of 0.452 and a relative viability (NCI-H2347; first compound 0.1 µM) of 0.415. For the same compound, the relative viability (NCI-H2347; first compound 0.3162 µM) was 0.484, the relative viability (NCI-H2347; first compound 1 µM) was 0.387 and the relative viability (H3255; first compound 0.01 µM) was 0.317. It also gave a relative viability (H3255; first compound 0.03162 µM) of 0.292, a relative viability (H3255; first compound 0.1 µM) of 0.388 and a relative viability (H3255; first compound 0.3162 µM) of 0.315. The relative viability (H3255; first compound 1 µM) was 0.317, the relative viability (201T; first compound 0.01 µM) was 0.395 and the relative viability (201T; first compound 0.03162 µM) was 0.387. The relative viability (201T; first compound 0.1 µM) was 0.406, the relative viability (201T; first compound 0.3162 µM) was 0.389 and the relative viability (201T; first compound 1 µM) was 0.372. For the same compound, the relative viability (NCI-H1793; first compound 0.01 µM) was 0.288, the relative viability (NCI-H1793; first compound 0.03162 µM) was 0.295 and the relative viability (NCI-H1793; first compound 0.1 µM) was 0.403. It also gave a relative viability (NCI-H1793; first compound 0.3162 µM) of 0.277, a relative viability (NCI-H1793; first compound 1 µM) of 0.269 and a relative viability (LU99A; first compound 0.01 µM) of 0.364. It also gave a relative viability (LU99A; first compound 0.03162 µM) of 0.393, a relative viability (LU99A; first compound 0.1 µM) of 0.457 and a relative viability (LU99A; first compound 0.3162 µM) of 0.446. It also gave a relative viability (LU99A; first compound 1 µM) of 0.338, a relative viability (NCI-H1650; first compound 0.01 µM) of 0.311 and a relative viability (NCI-H1650; first compound 0.03162 µM) of 0.338. It also gave a relative viability (NCI-H1650; first compound 0.1 µM) of 0.354, a relative viability (NCI-H1650; first compound 0.3162 µM) of 0.308 and a relative viability (NCI-H1650; first compound 1 µM) of 0.296. It also gave a relative viability (A-427; first compound 0.01 µM) of 0.58, a relative viability (A-427; first compound 0.03162 µM) of 0.475 and a relative viability (A-427; first compound 0.1 µM) of 0.59. For the same compound, the relative viability (A-427; first compound 0.3162 µM) was 0.501, the relative viability (A-427; first compound 1 µM) was 0.398 and the relative viability (PC-14; first compound 0.01 µM) was 0.599. The relative viability (PC-14; first compound 0.03162 µM) was 0.467, the relative viability (PC-14; first compound 0.1 µM) was 0.654 and the relative viability (PC-14; first compound 0.3162 µM) was 0.564. The relative viability (PC-14; first compound 1 µM) was 0.56, the relative viability (LCLC-103H; first compound 0.01 µM) was 0.473 and the relative viability (LCLC-103H; first compound 0.03162 µM) was 0.423. The relative viability (LCLC-103H; first compound 0.1 µM) was 0.457, the relative viability (LCLC-103H; first compound 0.3162 µM) was 0.48 and the relative viability (LCLC-103H; first compound 1 µM) was 0.466. The relative viability (COR-L23; first compound 0.01 µM) was 0.291, the relative viability (COR-L23; first compound 0.03162 µM) was 0.343 and the relative viability (COR-L23; first compound 0.1 µM) was 0.341. The relative viability (COR-L23; first compound 0.3162 µM) was 0.312, the relative viability (COR-L23; first compound 1 µM) was 0.248 and the relative viability (NCI-H727; first compound 0.01 µM) was 0.581. The relative viability (NCI-H727; first compound 0.03162 µM) was 0.635, the relative viability (NCI-H727; first compound 0.1 µM) was 0.769 and the relative viability (NCI-H727; first compound 0.3162 µM) was 0.697. The relative viability (NCI-H727; first compound 1 µM) was 0.59, the relative viability (SW 900; first compound 0.01 µM) was 0.653 and the relative viability (SW 900; first compound 0.03162 µM) was 0.535. For the same compound, the relative viability (SW 900; first compound 0.1 µM) was 0.602, the relative viability (SW 900; first compound 0.3162 µM) was 0.517 and the relative viability (SW 900; first compound 1 µM) was 0.483. It also gave a relative viability (LC-2-ad; first compound 0.01 µM) of 0.503, a relative viability (LC-2-ad; first compound 0.03162 µM) of 0.486 and a relative viability (LC-2-ad; first compound 0.1 µM) of 0.491. For the same compound, the relative viability (LC-2-ad; first compound 0.3162 µM) was 0.589, the relative viability (LC-2-ad; first compound 1 µM) was 0.473 and the relative viability (PC-3 [JPC-3]; first compound 0.03162 µM) was 0.607. The relative viability (PC-3 [JPC-3]; first compound 0.1 µM) was 0.616, the relative viability (PC-3 [JPC-3]; first compound 0.3162 µM) was 0.539 and the relative viability (PC-3 [JPC-3]; first compound 1 µM) was 0.58. For the same compound, the relative viability (LK-2; first compound 0.01 µM) was 0.65, the relative viability (LK-2; first compound 0.03162 µM) was 0.66 and the relative viability (LK-2; first compound 0.1 µM) was 0.637. It also gave a relative viability (LK-2; first compound 0.3162 µM) of 0.502, a relative viability (LK-2; first compound 1 µM) of 0.156 and a relative viability (NCI-H460; first compound 0.01 µM) of 0.147. The relative viability (NCI-H460; first compound 0.03162 µM) was 0.222, the relative viability (NCI-H460; first compound 0.1 µM) was 0.112 and the relative viability (NCI-H460; first compound 0.3162 µM) was 0.165. It also gave a relative viability (NCI-H460; first compound 1 µM) of 0.147, a relative viability (NCI-H23; first compound 0.01 µM) of 0.534 and a relative viability (NCI-H23; first compound 0.03162 µM) of 0.451. For the same compound, the relative viability (NCI-H23; first compound 0.1 µM) was 0.598, the relative viability (NCI-H23; first compound 0.3162 µM) was 0.547 and the relative viability (NCI-H23; first compound 1 µM) was 0.466. It also gave a relative viability (LCLC-97TM1; first compound 0.01 µM) of 0.205, a relative viability (LCLC-97TM1; first compound 0.03162 µM) of 0.203 and a relative viability (LCLC-97TM1; first compound 0.1 µM) of 0.297. The relative viability (LCLC-97TM1; first compound 0.3162 µM) was 0.238, the relative viability (LCLC-97TM1; first compound 1 µM) was 0.218 and the relative viability (NCI-H2228; first compound 0.01 µM) was 1.23. The relative viability (NCI-H2228; first compound 0.03162 µM) was 0.561, the relative viability (NCI-H2228; first compound 0.1 µM) was 0.434 and the relative viability (NCI-H2228; first compound 0.3162 µM) was 0.862. The relative viability (NCI-H2228; first compound 1 µM) was 0.513, the relative viability (HCC-44; first compound 0.01 µM) was 1.02 and the relative viability (HCC-44; first compound 0.03162 µM) was 1.07. It also gave a relative viability (HCC-44; first compound 0.1 µM) of 0.987, a relative viability (HCC-44; first compound 0.3162 µM) of 1.04 and a relative viability (HCC-44; first compound 1 µM) of 1. The relative viability (SW 1573; first compound 0.01 µM) was 0.377, the relative viability (SW 1573; first compound 0.03162 µM) was 0.407 and the relative viability (SW 1573; first compound 0.1 µM) was 0.519. The relative viability (SW 1573; first compound 0.3162 µM) was 0.398 and the relative viability (SW 1573; first compound 1 µM) was 0.331.
